Assay results from US20010053848A1, “Hetero-oligomeric G protein-coupled receptors as novel drug targets” (priority 2000, published 2001).
Like-named read-outs stand apart in the source and are kept apart here. Marks after values point to notes of the source that are not given here.

Experiments:
[1] = molecular target: T1, delta318 SSTR5-D2R putative hetero-oligomers (Homo sapiens, UniProt P14416+P35346, DEL319-364); assay: cell-based; details: for effect on SST inhibition of forskolin-stimulated cAMP: pertussis toxin 100 ng/ml pretreatment 2 h, sulpiride 10^−4 M
T1 construct: expressed in transfected cells
T1 sequence (P14416 whole entry, stated change not applied): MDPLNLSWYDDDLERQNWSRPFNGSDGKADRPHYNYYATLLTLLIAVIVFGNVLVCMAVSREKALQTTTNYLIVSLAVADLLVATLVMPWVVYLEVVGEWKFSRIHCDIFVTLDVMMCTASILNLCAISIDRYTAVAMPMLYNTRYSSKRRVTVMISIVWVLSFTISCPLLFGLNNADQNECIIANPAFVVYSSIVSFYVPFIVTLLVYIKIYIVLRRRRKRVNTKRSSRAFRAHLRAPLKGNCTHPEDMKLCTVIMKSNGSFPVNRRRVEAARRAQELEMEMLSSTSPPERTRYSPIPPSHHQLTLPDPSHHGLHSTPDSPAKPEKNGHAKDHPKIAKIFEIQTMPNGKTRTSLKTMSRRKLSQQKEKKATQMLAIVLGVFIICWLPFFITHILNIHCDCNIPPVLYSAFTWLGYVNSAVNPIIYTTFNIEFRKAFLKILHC
T1 sequence (P35346 1-318, stated change not applied): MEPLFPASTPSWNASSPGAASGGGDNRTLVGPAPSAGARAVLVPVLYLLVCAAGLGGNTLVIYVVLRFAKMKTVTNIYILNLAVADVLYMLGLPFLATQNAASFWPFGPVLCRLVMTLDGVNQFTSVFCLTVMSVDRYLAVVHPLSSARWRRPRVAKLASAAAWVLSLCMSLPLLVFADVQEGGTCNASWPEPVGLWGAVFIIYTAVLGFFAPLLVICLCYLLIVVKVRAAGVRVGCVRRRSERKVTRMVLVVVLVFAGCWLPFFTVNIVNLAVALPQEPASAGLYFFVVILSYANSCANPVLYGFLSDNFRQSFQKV

[2] = molecular target: HA-SSTR5 and D2R hetero-oligomer (Homo sapiens, UniProt P14416+P35346); assay: pbFRET microscopy, CHO-K1 cells co-expressing HA-SSTR5 and D2R; assay type: cell-based
Sequence of HA-SSTR5 and D2R hetero-oligomer (P35346 whole entry): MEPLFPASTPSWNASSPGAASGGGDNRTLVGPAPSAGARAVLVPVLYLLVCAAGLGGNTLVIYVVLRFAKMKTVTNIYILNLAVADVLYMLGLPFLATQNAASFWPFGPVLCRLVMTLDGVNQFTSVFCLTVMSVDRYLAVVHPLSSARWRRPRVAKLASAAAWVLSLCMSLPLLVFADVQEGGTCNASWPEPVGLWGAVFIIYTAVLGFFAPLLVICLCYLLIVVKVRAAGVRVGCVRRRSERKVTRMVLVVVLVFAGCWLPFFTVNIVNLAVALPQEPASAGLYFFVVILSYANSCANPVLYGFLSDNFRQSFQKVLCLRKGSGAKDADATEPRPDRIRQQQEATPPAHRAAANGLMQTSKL
Sequence of HA-SSTR5 and D2R hetero-oligomer (P14416 whole entry): as the sequence (P14416 whole entry, stated change not applied) above
Experimental: Generally, FRET efficiencies are determined indirectly by measuring changes in the quantum yield of any competitive donor deactivation process upon introduction of an acceptor molecule. Donor photobleaching represents such a competitive process which is exploited in pbFRET-microscopy. The effective FRET efficiency E is calculated from the photobleaching time constants of the donor obtained in the absence (τD−A) and presence (τD+A) of acceptor according to: [formula]
CHO-K1 cells, stably cotransfected with HA-hSSTR5 and D2R, were grown on glass coverslips for 24 hours, treated with various agonists/antagonists for 30 minutes at 37° C., washed and fixed in 1% paraformaldehyde for 30 minutes on ice. […] Coverslips were mounted on microscope slides and used for pbFRET-microscopy the day after.
pbFRET experiments were performed on a Leica DMLB fluorescence microscope equipped with epi-illumination. An OSRAM HBO 100 W Hg lamp was used as excitation light source and the objective was a Leica pl-fluotar 40× oil immersion lens. […] For each cell, a sequence of 20 images was acquired during donor-photobleaching. One image was collected every 4 s with exposure time of 1 s. Exposure as well as time delays were software controlled.
Images were corrected for dark current, background and flatness. For analysis of the photobleaching decay, only the high-intensity plasma membrane region was considered, low intensity background and intracellular regions were masked.
HA-hSSTR5 and D2R were specifically labeled with FITC (donor) and rhodamine (acceptor), respectively using mouse monoclonal antibody against HA and rabbit polyclonal anti-D2R antibody, followed by reaction with FITC conjugated goat anti-mouse and rhodamine conjugated goat anti-rabbit secondary antibody. […] FIG. 4A Left panel: HA-SSTR5 (visualized with mouse anti-HA mAb and FITC-conjugated goat anti-mouse IgG). FIG. 4A Middle panel: D2R (rabbit polyclonal antibody and rhodamine-conjugated goat anti-rabbit IgG). […] Magnification: ×630.
The decrease in donor fluorescence intensity due to photobleaching during prolonged exposure to excitation light was monitored in the absence (FIG. 4B, I-III) or presence (FIG. 4B, IV-VI) of acceptor, i.e. in the potential presence of an additional donor deactivation process, FRET. Cells were reacted with primary antibodies and either with FITC-conjugated goat-anti-mouse IgG (donor in the absence of acceptor) (I-III), or with both FITC-conjugated goat-anti-mouse and rhodamine-conjugated goat-anti-rabbit IgG (donor in the presence of acceptor) (IV-VI). FIG. 4B I. Photobleaching of donor in the absence of acceptor (only selection of images shown). For analysis of the photobleaching decay, only the high-intensity membrane region was considered, low intensity background and intracellular regions were masked (black). […] FIG. 4B II. The average fluorescence intensity of each image was plotted versus the time that the cell had been exposed to excitation light. […] FIG. 4B III. The decrease of fluorescence intensity was analysed for each pixel of the unmasked region and fitted to a single-exponential decay. The resulting time constants were plotted in the histogram shown. […] Photobleaching of donor in the presence of acceptor. […] FIG. 4B, IV-VI.
The photobleaching decay was analyzed for the plasma membrane regions, both on a pixel-by-pixel basis (FIG. 4, III & VI) as well as averaged over each image (FIG. 4, II & V).

[3] = i.c.v. in monkeys; cited from earlier work
[4] = intrathecal or epidural; post-operative and neoplastic pain; cited from earlier work
wild type hSSTR5 and DOR = wild type hSSTR5 and DOR (Homo sapiens, UniProt P35346+P41143); details: for effect on inhibition of radioligand binding induced by GTPγS: [125I] LTT SST-28 radioligand
Sequence of wild type hSSTR5 and DOR (P35346 whole entry): as the sequence (P35346 whole entry) above
Sequence of wild type hSSTR5 and DOR (P41143 whole entry): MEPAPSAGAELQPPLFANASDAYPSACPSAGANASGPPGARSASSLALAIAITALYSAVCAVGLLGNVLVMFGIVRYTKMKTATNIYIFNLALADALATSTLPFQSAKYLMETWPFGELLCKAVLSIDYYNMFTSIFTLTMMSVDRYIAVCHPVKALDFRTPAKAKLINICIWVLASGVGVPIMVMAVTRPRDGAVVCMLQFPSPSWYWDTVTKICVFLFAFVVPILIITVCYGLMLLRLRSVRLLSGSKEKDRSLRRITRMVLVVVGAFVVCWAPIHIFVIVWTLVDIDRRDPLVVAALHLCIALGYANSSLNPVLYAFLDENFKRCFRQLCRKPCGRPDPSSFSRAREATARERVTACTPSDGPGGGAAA
From the text: LTT SST-28 binding by the cotransfectants. In order to characterize G protein function, wild type hSSTR5 and DOR were stably coexpressed in CHO-K1 cells.

HA-SSTR5 and D2R = HA-SSTR5 and D2R (Homo sapiens, UniProt P14416+P35346); details: GTPγS 10^−4M, 30 min at 37° C.
Sequence of HA-SSTR5 and D2R (P35346 whole entry): as the sequence (P35346 whole entry) above
Sequence of HA-SSTR5 and D2R (P14416 whole entry): as the sequence (P14416 whole entry, stated change not applied) above

[5] = molecular target: T2, delta C-tail hSSTR5 with DOR (Homo sapiens, UniProt P35346+P41143, DEL319-364); assay: Inhibition of forskolin-stimulated cAMP, delta C-tail hSSTR5 co-expressed with DOR in CHO-K1 cells; assay type: cell-based; details: naltrindole (10^−5 M)
T2 construct: expressed in transfected cells
T2 sequence (P35346 1-318 limits assumed, stated change not applied): as the sequence (P35346 1-318, stated change not applied) above
T2 sequence (P41143 whole entry, stated change not applied): as the sequence (P41143 whole entry) above

[6] = molecular target: T3, DOR and SSTR5 hetero-oligomer (Homo sapiens, UniProt P35346+P41143); assay: Inhibition of FSK-stimulated cAMP, hSSTR5/DOR cotransfectants; assay type: cell-based; details: SST-14 plus naltrindole
T3 construct: expressed in transfected cells
T3 sequence (P35346 whole entry): as the sequence (P35346 whole entry) above
T3 sequence (P41143 whole entry): as the sequence (P41143 whole entry) above

pertussis toxin
effect on SST inhibition of forskolin-stimulated cAMP [1]: completely abolished

NCCc1ccc(O)c(O)c1 [DA, dopamine]
inhibition at 1 µM ([1]; CHO-K1, read-out: maximum inhibition of forskolin-stimulated cAMP): 30 ± 1.7%
E[%] average effective FRET-efficiency [2]: 16±2%
τavg[S] mean photobleaching time constant, D + A [2]: D + A: 21.3 ± 0.3 S
τavg[S] mean photobleaching time constant, D − A [2]: D − A: 17.9 ± 0.3 S

C[C@@H](O)[C@@H]1NC(=O)[C@H](CCCCN)NC(=O)[C@@H](Cc2c[nH]c3ccccc23)NC(=O)[C@H](Cc2ccccc2)NC(=O)[C@@H](NC(=O)[C@H](N)Cc2ccccc2)CSSC[C@@H](C(=O)N[C@H](CO)[C@@H](C)O)NC1=O [octreotide]
neurobehavioral effect [3]: Parkinsonian syndrome
analgesic effect [4]: powerful analgesic effects

CCN1CCCC1CNC(=O)c1cc(S(N)(=O)=O)ccc1OC (stereo not shown) [sulpiride]
effect on SST inhibition of forskolin-stimulated cAMP [1]: completely abolished
τavg[S] mean photobleaching time constant, D − A ([2]; donor in absence of acceptor, ± SEM): D − A: 17.9 ± 0.3 S
τavg[S] mean photobleaching time constant, D + A ([2]; donor in presence of acceptor, ± SEM): D + A: 19.2 ± 0.3 S

C[C@@H](NC(=O)[C@@H](N)Cc1ccc(O)cc1)C(=O)NCC(=O)N(C)[C@@H](Cc1ccccc1)C(=O)NCCO [DAMGO, [D-Ala^2, N-MePhe^4, Gly-ol^5]-Enkephalin]
effect on inhibition of radioligand binding induced by GTPγS (wild type hSSTR5 and DOR): without effect

CCc1cc(Cl)c(OC)c(C(=O)NC[C@@H]2CCCN2CC)c1O [eticlopride]
E[%] average effective FRET-efficiency [2]: 3±3%
τavg[S] mean photobleaching time constant, D + A [2]: D + A: 19.4 ± 0.4 S
τavg[S] mean photobleaching time constant, D − A [2]: D − A: 18.9 ± 0.3*^) S

Nc1nc2c(ncn2[C@@H]2O[C@H](COP(=O)(O)OP(=O)(O)OP(O)(O)=S)[C@@H](O)[C@H]2O)c(=O)[nH]1 [GTPγS]
decrease in specific radioligand binding (HA-SSTR5 and D2R): 41±3%

Oc1ccc2c3c1O[C@H]1c4[nH]c5ccccc5c4C[C@@]4(O)[C@@H](C2)N(CC2CC2)CC[C@]314 [naltrindole]
effect on inhibition of radioligand binding induced by GTPγS (wild type hSSTR5 and DOR): reversed
G-protein coupling efficiency (wild type hSSTR5 and DOR; enhancement by DOR ligand): reduced coupling
effect on SST-14 inhibition of FSK-stimulated cAMP [5]: abolished
SST-14 induced cAMP inhibition in the presence of the ligand [6]: 20±4%
